Results published in patent US12496301B2, “Use of androgen receptor degrader for the treatment of spinal and bulbar muscular atrophy” (Arvinas Operations, Inc., priority 2023, dated 2025).
pEC50: −log10 of the molar value.

Assays:
polyQ-AR = assay: Myotube high content imaging of polyQ-AR in myotubes that overexpress polyQ-AR; format: cell-based, human; settings: 24 hours treatment, nuclear compartment
Method: Cells were maintained in skeletal growth medium (PromoCell #23160). Immortalized myoblasts harboring inducible human androgen receptor with 56 CAG repeats (hAR56Q) were constructed by lentiviral transduction with CMV-rtTA and TetO-AR56Q-T2A-Puromycin (Mamchaoui, K. et al. Skeletal Muscle 1, 34 (2011)).
On day 0, immortalized myoblasts with inducible polyQ-AR (described above in “Cell lines”) cells were seeded onto Geltrex-coated 96-well plates at a density of 4×10^6 cells per plate in myoblast basal media (Promocell C-23060) supplemented with 1% penicillin-streptomycin (Pen Strep) antibiotics. The plates were then incubated overnight at 37° C. in a 5% CO2 environment. Upon reaching 100% confluency (Day 1), the myoblast media were aspirated and replaced with myotube differentiation media (Promocell C-23061). The cells were cultured in this differentiation media for 6 days, with media changes occurring every three days.
On the sixth day of differentiation, the compounds and doxycycline ([…]) diluted in 100% dimethyl sulfoxide (DMSO) were added to the myotubes. The plate was then incubated for 24 hours at 37° C. in an incubator. On the following day (Day 7), the culture media was removed from the plates and replaced with 50 μL of 4% paraformaldehyde (PFA) prepared in 1× phosphate-buffered saline (PBS). The plates were incubated with PFA for 15 minutes, followed by three washes with PBS. Subsequently, the myotubes were permeabilized for 15 minutes using 0.5% Triton X-100 in 1×PBS and then blocked with 5% Bovine Serum Albumin (BSA) (Thermofisher, #37520) for one hour at room temperature. After blocking, the plates were incubated overnight at 4° C. with primary antibodies: a 1:100 diluted Androgen Receptor antibody (D6F11 Cell Signaling 5135S) and a 1:200 diluted Desmin antibody (Thermofisher, MA1-22150) in PBS containing 0.1% BSA. […] Degradation was quantified by determining the average intensity of AR within separate nuclear and cytoplasmic compartments in Desmin positive area (myotubes).

AR = target: T1, AR (Homo sapiens, UniProt P10275); assay: AR agonism assay in MDA-MB-453 ARE-luc reporter cells in the presence of pomalidomide; format: cell-based; settings: MDA-MB-453 AR luciferase reporter, with pomalidomide
T1 sequence (P10275 1-920 Q868H): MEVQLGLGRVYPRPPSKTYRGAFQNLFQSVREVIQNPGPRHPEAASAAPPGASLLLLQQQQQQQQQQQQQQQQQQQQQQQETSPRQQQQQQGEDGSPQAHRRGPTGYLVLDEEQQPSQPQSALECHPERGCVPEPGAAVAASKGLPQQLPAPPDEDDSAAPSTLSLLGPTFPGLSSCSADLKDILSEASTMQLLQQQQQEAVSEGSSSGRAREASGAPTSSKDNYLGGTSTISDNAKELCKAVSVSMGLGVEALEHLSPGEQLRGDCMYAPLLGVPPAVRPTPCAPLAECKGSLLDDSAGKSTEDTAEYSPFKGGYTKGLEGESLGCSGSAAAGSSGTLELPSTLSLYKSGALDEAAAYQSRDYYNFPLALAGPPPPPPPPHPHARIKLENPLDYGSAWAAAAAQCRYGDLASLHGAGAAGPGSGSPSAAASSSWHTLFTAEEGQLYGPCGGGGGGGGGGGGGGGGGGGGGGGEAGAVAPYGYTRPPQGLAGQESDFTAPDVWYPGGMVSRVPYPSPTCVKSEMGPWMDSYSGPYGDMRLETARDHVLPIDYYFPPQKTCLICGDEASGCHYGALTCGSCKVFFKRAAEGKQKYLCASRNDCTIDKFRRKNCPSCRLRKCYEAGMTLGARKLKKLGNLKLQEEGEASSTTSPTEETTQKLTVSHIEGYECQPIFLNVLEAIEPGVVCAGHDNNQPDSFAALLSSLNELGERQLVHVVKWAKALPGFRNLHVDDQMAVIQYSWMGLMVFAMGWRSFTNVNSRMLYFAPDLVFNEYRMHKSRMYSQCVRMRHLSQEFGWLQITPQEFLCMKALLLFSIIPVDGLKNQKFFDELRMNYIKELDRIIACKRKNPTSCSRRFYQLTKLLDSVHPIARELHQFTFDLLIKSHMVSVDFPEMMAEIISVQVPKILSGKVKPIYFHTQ
Method: The AR Responsive Luciferase Reporter MDA-MB-453 Stable Cell Line (MDA-MB-453 ARE-luc) was utilized for the AR agonism assay. These cells constitutively express the firefly luciferase reporter gene under the control of the androgen receptor response element. MDA-MB-453 ARE-luc cells were cultured in RPMI media (Thermo Fisher Scientific) supplemented with 5% charcoal-Dextran treated fetal bovine serum and were maintained at 37° C. in a 5% CO2 incubator. On day 0, the cells were seeded in 96-well plates at a density of 5×10^6 cells per plate. To prevent serum androgen interference during the AR agonism assay, the cells were cultured in phenol-free RPMI media without FBS. On day 1, the cells were treated with the compounds to establish concentration-response curves (CRCs). The compounds were administered at a top concentration of 300 nM with half-log dilutions. The synthetic AR agonist R1881 served as a positive control, with a top concentration of 30 nM and half-log dilutions. E3 ligase inhibitor pomalidomide was included in each well alongside the compounds at a concentration tenfold higher than that of the treated compounds. On day 2, the culture medium was removed, and luminescence data were obtained using the Bright Glo Assay (Promega, Catalog No. E2620) with 50 μL of Bright Glo buffer per well. Luminescence signals were recorded using a plate reader, and the agonism effect was calculated as a percentage using the formula: Agonism effect (%)=(Luminescence signal of compound/Maximum signal of R1881 at 30 nM)*100.

CC(C)N(CC1CCN(c2ncc(C(=O)N[C@H]3C(C)(C)[C@H](Oc4ccc(C#N)c(Cl)c4)C3(C)C)cn2)CC1)[C@H]1C[C@H](Oc2ccc3c(c2)C(=O)N(C2CCC(=O)NC2=O)C3=O)C1 (stereo partly drawn) [Compound A, N-((1r,3r)-3-(3-chloro-4-cyanophenoxy)-2,2,4,4-tetramethylcyclobutyl)-2-(4-((((1r,3r)-3-((2-(2,6-dioxopiperidin-3-yl)-1,3-dioxoisoindolin-5-yl)oxy)cyclobutyl)(isopropyl)amino)methyl)piperidin-1-yl)pyrimidine-5-carboxamide]
mean Dmax for polyQ-AR in myotube nuclei (polyQ-AR): approximately 40% | agonism activity at Emax relative to R1881 (AR): < 40% | pEC50 (AR; read-out: EC50, AR agonist activity): 7.16
